According to patent publication US10071108B2, “Methods and pharmaceutical compositions for the treatment of hepatitis b virus infection” (INSERM (INSTITUT NATIONAL DE LA SANTÉ ET DE LA RECHERCHE …, priority 2013, dated 2018):
Entries after “also recorded” stand apart in the source; their conditions may differ.

Experiments:
[1] = system: HBV; experiment: Secretion of HBsAg in supernatant of HBV infected HepaRG cells; type: cell-based, hepatitis B virus; settings: for effect on HBsAg secretion in supernatant: treated days 4, 7 and 11 post infection, supernatant day 14
Excerpt: Differentiated HepaRG cells were infected with HBV (100 geq/cell for 24 hr), then treated 3 successive times (days 4, 7 and 11 post infection) with FXR modulators at indicated concentrations in μM. Cell supernatants were collected 14 days post infection for quantification of HBsAg (Architec Abbott).
(§1) The HepaRG line derived from a human cellularhepato carcinoma can differentiate and regain many phenotypic traits of hepatocytes after 4 weeks of culture under defined conditions (Hantz O. et al., 2009, J Gen Virol, 90:127-135). After differentiation, these cells are susceptible to infection at high MOI of HBV virions produced by HepG2.2.15 line. Under these conditions viral production can be observed in the second week post infection. This system allows the study of most steps of the viral replication cycle, including penetration into the cell, translocation of the viral genome into the nucleus, the repair and synthesis of the cccDNA, transcription of pregenomic and viral mRNAs as well as later stages of the replication cycle with the synthesis of viral proteins, the assembly and secretion of infectious virions and the secretion of the viral proteins HBs and HBe.
(§2) The HepaRG system thus allows the monitoring of the secretion of HBsAg and HBeAg and virion incorporated DNA into the cell culture supernatant after infection with HBV infectious virion stocks prepared from the HepG2.2.15 cell line. This system also allows the monitoring of the synthesis of pregenomic and viral mRNAs as well as cytoplasmic replication intermediates and cccDNA. The effects of molecules on cell physiology and cell differentiated functions were explored, including the quantification of hepatic markers such as albumin and apolipoprotein B. The effects of the compounds on the cellular bile acid pathway were monitored by analysis and quantification of the FXR mRNA as well as the SHP and apoA1 encoding mRNAs the expression of which is under the control of FXR

[2] = system: HBV; experiment: Secretion of HBeAg in supernatant of HBV infected HepaRG cells; type: cell-based, hepatitis B virus; settings: for effect on HBeAg secretion in supernatant: HBV infected HepaRG, treated days 4, 7 and 11 post infection, supernatant day 14
Excerpt: (§3) Cell supernatants were collected 14 days post infection for quantification of HBsAg, HBeAg (Architec Abbott) or HBV DNA by quantitative PCR using rcDNA primers (n=3±SEM). FIG. 2A—Both FXR agonists, GW4064 and 6ECDCA, inhibit the secretion of HBsAg and HBeAg in the supernatant in a dose-dependent manner whereas UDCA and 052EDL133 have no effect on the antigen secretion. FIG. 2B—Both FXR agonists, GW4064 and 6ECDCA, inhibit the secretion of infectious HBV DNA positive viral particles in the supernatant in a dose-dependent manner. […] FIG. 2C—The FXR agonist PXL007 represses HBsAg, HBeAg and HBV DNA in a dose-dependent manner.
as §1, §2

[3] = system: HBV; experiment: Secretion of HBV DNA in supernatant of HBV infected HepaRG cells (quantitative PCR); type: cell-based, hepatitis B virus; settings: for effect on secretion of HBV DNA (virions) in supernatant: supernatant day 14, quantitative PCR
Excerpt: as §3
Differentiated HepaRG cells were infected and treated as described in FIG. 1 legend. Cell supernatants were collected 14 days post infection. (FIG. 8A) Quantification of HBsAg and HBeAg secretion. (FIG. 8B) Quantification of secreted infectious particles by DNA extraction and quantification by qPCR.
as §1, §2

[4] = system: HBV; experiment: Expression of HBV core protein (HBc) in infected HepaRG cells, immunofluorescence; type: cell-based, hepatitis B virus; settings: fixed day 14 post infection, anti-HBc immunofluorescence
Protocol: Differentiated HepaRG cells grown on coverslips were infected and treated as described in FIG. 1 legend (n=3±SEM). Cells were fixed on day 14 post infection and immunocytochemistry using anti-HBc antibody was carried out.

[5] = system: HBV; experiment: HBV pregenomic/precore mRNA in infected HepaRG cells (qRT-PCR, Northern blot); type: cell-based, hepatitis B virus
Excerpt: Differentiated HepaRG cells were infected and treated as described in FIG. 1 legend. Cells were lysed and RNA was extracted, then either reverse transcribed into cDNA for quantitative PCR (qRT-PCR) (FIG. 4A) or used in Northern Blot experiment (FIG. 4B). The same experiment was repeated and DNA was extracted. Following plasmid-safe DNase treatment, cccDNA expression was quantified by qPCR experiment using specific HBV cccDNA primers and TaqMan probe (n=3±SEM) (FIG. 4C). cccDNA quantification was normalized to the number of βglobin gene. The expression levels of HBV pregenomic gene were quantified, as well as 3 housekeeping genes for normalization (n=3±SEM). […]
as §2, with “This system also allows the monitoring of the synthesis of pregenomic and viral mRNAs as well as cytoplasmic replication intermediates and cccDNA.” left out

[6] = system: FXRα; experiment: FXR mRNA expression in HBV infected HepaRG cells (qPCR); type: cell-based, human; settings: 10 days treatment
Excerpt: (§4) Differentiated HepaRG cells were infected and treated as described in FIG. 1 legend. Cells were lysed and RNA was extracted, then reverse transcribed into cDNA for qPCR. The expression levels of 3 genes of interest were quantified: FXRα, SHP and APOA1, as well as 3 housekeeping genes for normalization (n=3±SEM). FXR agonists, GW4064 and 6ECDCA, inhibit the expression of FXR mRNA in a dose-dependent manner. SHP and APOA1 are two genes under the regulation of FXR; SHP is induced by FXR while APOA1 is repressed. Here, SHP mRNA expression increases with GW4064 and 6ECDCA treatments, while APOA1 mRNA expression decreases.
as §2

[7] = system: SHP; experiment: SHP mRNA expression in HBV infected HepaRG cells (qPCR); type: cell-based, human; settings: 10 days treatment
Excerpt: as §4, §2

[8] = system: APOA1; experiment: APOA1 mRNA expression in HBV infected HepaRG cells (qPCR); type: cell-based, human; settings: 10 days treatment
Excerpt: as §4, §2

[9] = molecular target: T1, FXR (Homo sapiens, UniProt Q96RI1); experiment: Reporter gene under control of the HBV Enh2/core promoter region (two FXR response elements) in Huh-7 cell line; type: cell-based; settings: data not shown
T1 construct: host or cells: Huh-7
T1 sequence (Q96RI1 1-486): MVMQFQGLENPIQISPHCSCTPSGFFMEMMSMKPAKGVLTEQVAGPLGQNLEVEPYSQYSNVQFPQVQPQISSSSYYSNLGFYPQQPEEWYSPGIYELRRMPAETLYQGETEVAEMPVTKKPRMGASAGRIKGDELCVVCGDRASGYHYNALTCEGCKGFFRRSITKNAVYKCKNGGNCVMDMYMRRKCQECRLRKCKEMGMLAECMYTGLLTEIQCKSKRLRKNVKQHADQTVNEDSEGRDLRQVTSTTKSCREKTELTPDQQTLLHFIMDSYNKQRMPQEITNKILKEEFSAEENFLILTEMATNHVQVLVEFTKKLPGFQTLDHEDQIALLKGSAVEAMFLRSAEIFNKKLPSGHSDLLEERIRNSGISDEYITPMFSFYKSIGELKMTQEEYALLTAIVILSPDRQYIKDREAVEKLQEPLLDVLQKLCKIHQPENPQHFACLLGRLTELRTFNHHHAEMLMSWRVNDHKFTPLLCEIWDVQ
Excerpt: A panel of molecules not previously described and original or reference modulators of FXR activity were first tested on the expression of a reporter gene under the control of the HBV Enh2/core promoter region that contains two FXR response elements in the Huh-7 cell line as described in Ramière C, et al., 2008, J Virol; 82: 10832-10840. Molecules were then classified as FXR agonists or antagonists on the basis respectively of the expression increase or decrease of the reporter gene under the transcription control of FXR. […] Thus some molecules decreased the production of HBsAg in a dose-dependent manner. If the active molecules are classified by their antagonist, agonist or agonist “partial” by the screening test in Huh-7 cell with the reporter gene construct, it appears, against previous odds, that the inhibitory effect on the production of HBsAg grew with the tendency of the molecule to be a potent FXR agonist.

[10] = CsA during infection, then FXR agonist

Row | SMILES | effect on HBsAg secretion in supernatant ([1]; HBV infected HepaRG) | effect on HBeAg secretion in supernatant [2] | effect on secretion of HBV DNA (virions) in supernatant [3] | classification as FXR agonist or antagonist by reporter gene expression [9] | other results
1 | CC(C)c1onc(-c2c(Cl)cccc2Cl)c1COc1ccc(/C=C/c2cccc(C(=O)O)c2)c(Cl)c1 [GW4064] | inhibit; also recorded: strong and dose dependent inhibitory effect; also recorded: dose dependent and strong inhibitory effect | inhibit; also recorded: dose dependent and strong inhibitory effect | inhibit |  | HBsAg secretion, FXR agonist treatment of cells infected in presence of cyclosporin A [1, 10]: further reduced; inhibition of HBsAg secretion ([1]; at 10 μM, HBV infected HepaRG): around 70%; HBeAg secretion, FXR agonist treatment of cells infected in presence of cyclosporin A [2, 10]: further reduced; expression of HBc in infected cells [4]: drastically reduce; also recorded: strongly inhibited; expression of HBV pregenomic/precore mRNA [5]: inhibit; FXR mRNA expression [6]: inhibit; also recorded: strongly repressed; SHP mRNA expression [7]: increased; APOA1 mRNA expression [8]: decreased
2 | O=C(O)c1cc2c(Cl)c(N3CCN(S(=O)(=O)c4c(Cl)cccc4Cl)CC3)ccc2o1 [PXL007] | represses; also recorded: strongly inhibited | represses; also recorded: strongly inhibited | represses; also recorded: strongly inhibited |  | 
3 | O=C(O)c1cc2c(Br)c(N3CCC(NS(=O)(=O)c4c(Cl)cccc4Cl)CC3)ccc2o1 [PXL0743, 4-Bromo-5-[4-(2,6-dichloro-benzenesulfonylamino)-piperidin-1-yl]-benzofuran-2-carboxylic acid] | intermediate profile of inhibition |  |  | Partial agonists | 
4 | O=C(O)c1cc2c(Br)c(N3CCCN(S(=O)(=O)c4ccccc4Cl)CC3)ccc2o1 [PXL0914, 4-Bromo-5-[4-(2-chloro-benzenesulfonyl)-[1,4]diazepan-1-yl]-benzofuran-2-carboxylic acid] | intermediate profile of inhibition |  |  | Partial agonists | 
5 | Cc1c(N2CCN(C(=O)c3c(Cl)cccc3Cl)CC2)ccc2oc(C(=O)O)cc12 [PXL0924, 5-[4-(2,6-Dichloro-benzoyl)-piperazin-1-yl]-4-methyl-benzofuran-2-carboxylic acid] | intermediate profile of inhibition |  |  | Partial agonists | 
6 | C[C@H](CCC(=O)O)[C@H]1CC[C@H]2[C@@H]3[C@@H](O)C[C@@H]4C[C@H](O)CC[C@]4(C)[C@H]3CC[C@]12C [UDCA, ursodesoxycholic acid] | no effect | no effect | no or limited effect; also recorded: did not modify |  | effect on HBsAg secretion in supernatant ([1]; HBV infected HepaRG, listed as ursodeoxycholate): did not inhibit; effect on HBeAg secretion in supernatant ([2]; listed as ursodeoxycholate): did not inhibit; expression of HBc in infected cells [4]: do not appear to modify; also recorded: did not significantly modify
7 | Nc1ccn([C@@H]2CS[C@H](CO)O2)c(=O)n1 [lamivudine] |  |  |  |  | reduction of viral DNA secreted in supernatant ([3]; at 10 μM): 97%
